The results in this text go back to PubChem BioAssay (NCI).

Values joined by “and” are separate entries in the source; they are usually repeats but may differ in a detail not shown here. Equal values may be shown once.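 A five-concentration, 48-hour dose response in 96-well plates underlies each endpoint, interpolated linearly between surrounding concentrations. GI50 marks 50% less growth. TGI marks complete inhibition of growth.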

Test systems include 786-0 renal; NCI-H522 lung; MDA-MB-435; CCRF-CEM leukemia; A498 renal; SF-295 CNS; MALME-3M melanoma; SNB-19 CNS; COLO 205 colon; SK-MEL-28 melanoma.
What all share (test): growth of human tumour cells (NCI), 48 h

For `O=C1c2ccccc2C(=O)c2c(NCCNCCO)ccc(NCCNCCO)c21`, the GI50 with 786-0 renal is 0.757 µM and 1.69 µM and 1.18 µM; in the test on NCI-H522 lung, 0.482 µM and 0.452 µM and 0.267 µM; with MDA-MB-435, 2.43 µM and 3.09 µM and 1.95 µM; in the test with CCRF-CEM leukemia, 0.156 µM and 0.461 µM and 0.264 µM; in the test on A498 renal it was 0.193 µM and 1.37 µM and 0.565 µM; in the test on SF-295 CNS, 0.416 µM and 0.655 µM and 0.89 µM. Also, the GI50 with MALME-3M melanoma is 1.6 µM and 1.18 µM and 1.21 µM; in the test on SNB-19 CNS it was 0.372 µM and 0.625 µM and 0.584 µM; with COLO 205 colon it was 1.01 µM and 1.27 µM and 0.724 µM; with SK-MEL-28 melanoma it was 1.46 µM and 1.61 µM and 1.7 µM. Further, the TGI with 786-0 renal was 4.66 µM and 14.3 µM and 12.9 µM; in the test with NCI-H522 lung, 5.48 µM and 2.22 µM and 1.32 µM; in the test with MDA-MB-435, 7.22 µM and 13.2 µM and 6.06 µM; with CCRF-CEM leukemia it was 14.6 µM and 11.1 µM; in the test on A498 renal, 1.11 µM and 7 µM and 3.61 µM; in the test with SF-295 CNS it was 4.47 µM and 9.66 µM and 9.97 µM. The TGI was 4.97 µM and 6.88 µM and 3.85 µM in the test with MALME-3M melanoma; 4.19 µM and 9.76 µM and 5.58 µM in the test on SNB-19 CNS; 3 µM and 5.1 µM and 2.64 µM with COLO 205 colon; 3.14 µM and 3.87 µM and 5.01 µM with SK-MEL-28 melanoma.
Regarding `Nc1nc2c(c(=O)[nH]1)N=C(COP(=O)(O)OP(=O)(O)O)CN2`, the TGI with 786-0 renal, in the test on NCI-H522 lung, with MDA-MB-435, in the test with CCRF-CEM leukemia, in the test with A498 renal and in the test with SF-295 CNS was > 100 µM throughout. Moreover, the TGI in the test on MALME-3M melanoma, in the test with SNB-19 CNS, in the test with COLO 205 colon and in the test with SK-MEL-28 melanoma was > 100 µM each time.
`Cc1ccn2c(-c3csc(Nc4cccc(O)c4)n3)c(C)nc2c1`: the GI50 in the test on 786-0 renal is 1.8 µM; in the test on NCI-H522 lung, 0.32 µM; with MDA-MB-435 it was 0.059 µM; in the test with CCRF-CEM leukemia it was 0.48 µM; in the test on A498 renal, 0.926 µM; in the test on SF-295 CNS it was 2.34 µM. Also, the GI50 is 0.444 µM with MALME-3M melanoma, 4.66 µM in the test with SNB-19 CNS, 11.8 µM in the test with COLO 205 colon and 1.51 µM in the test with SK-MEL-28 melanoma. Further, the TGI in the test with 786-0 renal was 8.81 µM; in the test on NCI-H522 lung it was 3.22 µM; with MDA-MB-435, 0.281 µM; with CCRF-CEM leukemia, > 33 µM; with A498 renal it was 32.1 µM; with SF-295 CNS it was 11.9 µM. Moreover, the TGI with MALME-3M melanoma is 25 µM; in the test with SNB-19 CNS it was 77.4 µM; with COLO 205 colon, 26.3 µM; in the test on SK-MEL-28 melanoma it was 36.3 µM.
With `O=C(NCCSSCCNC(=O)/C(Cc1ccc(O)c(Br)c1)=N/O)/C(Cc1ccc(O)c(Br)c1)=N/O`, the TGI was 8.49 µM in the test with 786-0 renal; 4.26 µM in the test on NCI-H522 lung; > 24.9 µM with MDA-MB-435; > 18.3 µM in the test with CCRF-CEM leukemia; 14.7 µM in the test with A498 renal; 4.29 µM with SF-295 CNS. Moreover, the TGI with MALME-3M melanoma was 7.44 µM; with SNB-19 CNS, 7.96 µM; in the test with COLO 205 colon, 6.82 µM; in the test with SK-MEL-28 melanoma it was 16.3 µM.
Take `Oc1[nH]c2ccc(Cl)cc2c1/C=c1/ccc2c(c1)N=C(c1ccc(C(F)(F)F)cc1)N=2`: the GI50 is 1.75 µM in the test on 786-0 renal; 1.66 µM in the test with NCI-H522 lung; 1.9 µM in the test with MDA-MB-435; 2.43 µM in the test with CCRF-CEM leukemia; 1.32 µM in the test with A498 renal; 1.87 µM in the test with SF-295 CNS. Besides, the GI50 was 2.34 µM in the test on MALME-3M melanoma, 3.12 µM in the test on SNB-19 CNS, 2.1 µM in the test with COLO 205 colon and 2.35 µM in the test with SK-MEL-28 melanoma. The TGI in the test with 786-0 renal came to 3.31 µM; in the test with NCI-H522 lung, 3.24 µM; with MDA-MB-435 it was 4.7 µM; in the test on CCRF-CEM leukemia, 6.96 µM; in the test on A498 renal, 4.17 µM; in the test with SF-295 CNS, 5.04 µM. Further, the TGI came to 6.57 µM with MALME-3M melanoma, 17 µM in the test with SNB-19 CNS, 4.13 µM in the test with COLO 205 colon and 6.71 µM in the test with SK-MEL-28 melanoma.
For `O=S1CCN(Cc2ccc(-c3ccc4ncnc(Nc5ccc(OCc6ccccc6)c(F)c5)c4c3)o2)CC1`, the GI50 with 786-0 renal is 6.59 µM; in the test on NCI-H522 lung it was 0.984 µM; in the test on MDA-MB-435, 7.21 µM; in the test on CCRF-CEM leukemia it was 8.82 µM; with A498 renal, 3.68 µM; in the test on SF-295 CNS, 7.63 µM. Further, the GI50 with MALME-3M melanoma was 7.08 µM; in the test with SNB-19 CNS it was 23.4 µM; in the test with COLO 205 colon it was 4.42 µM; in the test with SK-MEL-28 melanoma, 6.8 µM. The TGI in the test on 786-0 renal was 18.6 µM; in the test with NCI-H522 lung, > 20.1 µM; with MDA-MB-435, > 24.2 µM; in the test on CCRF-CEM leukemia it was > 25 µM; in the test with A498 renal, 21.6 µM; in the test on SF-295 CNS it was > 22.1 µM. Moreover, the TGI with MALME-3M melanoma is > 22.6 µM; with SNB-19 CNS, > 25 µM; in the test with COLO 205 colon, 10.6 µM; in the test with SK-MEL-28 melanoma, > 20.5 µM.
As for `[CH3][Sn]([CH3])([CH3])[O]C(=O)C(O)c1ccccc1` (stereo not given), the GI50 with 786-0 renal is 4.81 µM; in the test with NCI-H522 lung, 2.6 µM; in the test with MDA-MB-435, 3.52 µM; with CCRF-CEM leukemia, 4.84 µM; in the test on A498 renal it was 13.8 µM; in the test on SF-295 CNS, 3.67 µM. Besides, the GI50 was 5.6 µM in the test with MALME-3M melanoma, 17 µM with SNB-19 CNS, 4.93 µM in the test on COLO 205 colon and 8.55 µM in the test on SK-MEL-28 melanoma. Moreover, the TGI in the test on 786-0 renal is > 100 µM; in the test with NCI-H522 lung, 13.1 µM; in the test on MDA-MB-435, 14.8 µM; with CCRF-CEM leukemia, > 73.5 µM; in the test on A498 renal, 63.9 µM; in the test with SF-295 CNS, 16.9 µM. Moreover, the TGI with MALME-3M melanoma was 24.8 µM; with SNB-19 CNS, > 89.2 µM; in the test on COLO 205 colon, 23.7 µM; with SK-MEL-28 melanoma it was > 100 µM.
